± gives the expanded uncertainty stated by the source.
SMILES: F/C=C/C(F)(F)F [trans-1,3,3,3-tetrafluoropropene]
- mass density (343.15 K, 9736 kPa, Liquid, Vibrating tube method): 1068.9 ± 1.6 kg/m3
- mass density (343.15 K, 10753 kPa, Liquid, Vibrating tube method): 1076.1 ± 1.6 kg/m3
- mass density (343.15 K, 11770 kPa, Liquid, Vibrating tube method): 1082.8 ± 1.6 kg/m3
- mass density (343.15 K, 12788 kPa, Liquid, Vibrating tube method): 1089.2 ± 1.6 kg/m3
- mass density (343.15 K, 15829 kPa, Liquid, Vibrating tube method): 1106.7 ± 1.6 kg/m3
- mass density (343.15 K, 17849 kPa, Liquid, Vibrating tube method): 1117.1 ± 1.6 kg/m3
- mass density (343.15 K, 18851 kPa, Liquid, Vibrating tube method): 1122 ± 1.6 kg/m3
- mass density (343.15 K, 19867 kPa, Liquid, Vibrating tube method): 1126.8 ± 1.6 kg/m3
- mass density (343.15 K, 20877 kPa, Liquid, Vibrating tube method): 1131.4 ± 1.6 kg/m3
- mass density (343.15 K, 21883 kPa, Liquid, Vibrating tube method): 1135.8 ± 1.6 kg/m3
- mass density (343.15 K, 22905 kPa, Liquid, Vibrating tube method): 1140.2 ± 1.6 kg/m3
- mass density (343.15 K, 23913 kPa, Liquid, Vibrating tube method): 1144.3 ± 1.6 kg/m3
- mass density (343.15 K, 24913 kPa, Liquid, Vibrating tube method): 1148.4 ± 1.6 kg/m3
- mass density (343.15 K, 25929 kPa, Liquid, Vibrating tube method): 1152.4 ± 1.6 kg/m3
- mass density (343.15 K, 26933 kPa, Liquid, Vibrating tube method): 1156.2 ± 1.6 kg/m3
- mass density (343.15 K, 27938 kPa, Liquid, Vibrating tube method): 1160 ± 1.6 kg/m3
- mass density (343.15 K, 28947 kPa, Liquid, Vibrating tube method): 1163.6 ± 1.6 kg/m3
- mass density (343.15 K, 29953 kPa, Liquid, Vibrating tube method): 1167.2 ± 1.6 kg/m3
- mass density (343.15 K, 30968 kPa, Liquid, Vibrating tube method): 1170.7 ± 1.7 kg/m3
- mass density (343.15 K, 31987 kPa, Liquid, Vibrating tube method): 1174.2 ± 1.7 kg/m3
- mass density (343.15 K, 32989 kPa, Liquid, Vibrating tube method): 1177.5 ± 1.7 kg/m3
- mass density (343.15 K, 33994 kPa, Liquid, Vibrating tube method): 1180.8 ± 1.7 kg/m3
- mass density (343.16 K, 13798 kPa, Liquid, Vibrating tube method): 1095.3 ± 1.6 kg/m3
- mass density (343.16 K, 14817 kPa, Liquid, Vibrating tube method): 1101.1 ± 1.6 kg/m3
- mass density (343.16 K, 16838 kPa, Liquid, Vibrating tube method): 1112 ± 1.6 kg/m3
- mass density (352.95 K, 306.8 kPa, Gas, isochoric method): 12.346 ± 0.088 kg/m3
- mass density (352.96 K, 306.9 kPa, Gas, isochoric method): 12.346 ± 0.088 kg/m3
- mass density (352.99 K, 522.8 kPa, Gas, isochoric method): 21.739 ± 0.089 kg/m3
- mass density (353 K, 191.9 kPa, Gas, isochoric method): 7.634 ± 0.082 kg/m3
- mass density (353 K, 672 kPa, Gas, isochoric method): 28.571 ± 0.097 kg/m3
- mass density (353 K, 672.1 kPa, Gas, isochoric method): 28.571 ± 0.097 kg/m3
- mass density (353 K, 867.3 kPa, Gas, isochoric method): 38.462 ± 0.11 kg/m3
- mass density (353.01 K, 84.1 kPa, Gas, isochoric method): 3.3 ± 0.081 kg/m3
- mass density (353.01 K, 191.9 kPa, Gas, isochoric method): 7.634 ± 0.082 kg/m3
- mass density (353.01 K, 458.4 kPa, Gas, isochoric method): 19.231 ± 0.089 kg/m3
- mass density (353.01 K, 739.8 kPa, Gas, isochoric method): 32.258 ± 0.1 kg/m3
- mass density (353.02 K, 84.1 kPa, Gas, isochoric method): 3.3 ± 0.081 kg/m3
- mass density (353.02 K, 739.8 kPa, Gas, isochoric method): 32.258 ± 0.1 kg/m3
- mass density (353.03 K, 950.8 kPa, Gas, isochoric method): 43.478 ± 0.12 kg/m3
- mass density (353.14 K, 30961 kPa, Liquid, Vibrating tube method): 1149 ± 1.6 kg/m3
- mass density (353.15 K, 2236 kPa, Liquid, Vibrating tube method): 936.2 ± 1.7 kg/m3
- mass density (353.15 K, 9793 kPa, Liquid, Vibrating tube method): 1035.4 ± 1.6 kg/m3
- mass density (353.15 K, 12814 kPa, Liquid, Vibrating tube method): 1058.8 ± 1.6 kg/m3
- mass density (353.15 K, 15825 kPa, Liquid, Vibrating tube method): 1078.4 ± 1.6 kg/m3
- mass density (353.15 K, 16834 kPa, Liquid, Vibrating tube method): 1084.4 ± 1.6 kg/m3
- mass density (353.15 K, 18850 kPa, Liquid, Vibrating tube method): 1095.7 ± 1.6 kg/m3
- mass density (353.15 K, 19865 kPa, Liquid, Vibrating tube method): 1101 ± 1.6 kg/m3
- mass density (353.15 K, 21883 kPa, Liquid, Vibrating tube method): 1111 ± 1.6 kg/m3
- mass density (353.15 K, 22889 kPa, Liquid, Vibrating tube method): 1115.7 ± 1.6 kg/m3
- mass density (353.15 K, 24907 kPa, Liquid, Vibrating tube method): 1124.7 ± 1.6 kg/m3
- mass density (353.15 K, 25928 kPa, Liquid, Vibrating tube method): 1129.2 ± 1.6 kg/m3
- mass density (353.15 K, 26934 kPa, Liquid, Vibrating tube method): 1133.3 ± 1.6 kg/m3
- mass density (353.15 K, 27950 kPa, Liquid, Vibrating tube method): 1137.5 ± 1.6 kg/m3
- mass density (353.15 K, 28953 kPa, Liquid, Vibrating tube method): 1141.4 ± 1.6 kg/m3
- mass density (353.15 K, 29957 kPa, Liquid, Vibrating tube method): 1145.2 ± 1.6 kg/m3
- mass density (353.15 K, 31977 kPa, Liquid, Vibrating tube method): 1152.7 ± 1.6 kg/m3
- mass density (353.15 K, 32983 kPa, Liquid, Vibrating tube method): 1156.3 ± 1.6 kg/m3
- mass density (353.15 K, 33998 kPa, Liquid, Vibrating tube method): 1159.9 ± 1.6 kg/m3
- mass density (353.16 K, 2681 kPa, Liquid, Vibrating tube method): 945.9 ± 1.7 kg/m3
- mass density (353.16 K, 3704 kPa, Liquid, Vibrating tube method): 964.9 ± 1.7 kg/m3
- mass density (353.16 K, 4723 kPa, Liquid, Vibrating tube method): 980.5 ± 1.7 kg/m3
- mass density (353.16 K, 5740 kPa, Liquid, Vibrating tube method): 994 ± 1.7 kg/m3
- mass density (353.16 K, 6749 kPa, Liquid, Vibrating tube method): 1005.9 ± 1.7 kg/m3
- mass density (353.16 K, 7775 kPa, Liquid, Vibrating tube method): 1016.7 ± 1.6 kg/m3
- mass density (353.16 K, 8789 kPa, Liquid, Vibrating tube method): 1026.5 ± 1.6 kg/m3
- mass density (353.16 K, 10794 kPa, Liquid, Vibrating tube method): 1043.6 ± 1.6 kg/m3
- mass density (353.16 K, 11799 kPa, Liquid, Vibrating tube method): 1051.4 ± 1.6 kg/m3
- mass density (353.16 K, 13815 kPa, Liquid, Vibrating tube method): 1065.7 ± 1.6 kg/m3
- mass density (353.16 K, 14816 kPa, Liquid, Vibrating tube method): 1072.2 ± 1.6 kg/m3
- mass density (353.16 K, 17837 kPa, Liquid, Vibrating tube method): 1090.2 ± 1.6 kg/m3
- mass density (353.16 K, 20878 kPa, Liquid, Vibrating tube method): 1106.1 ± 1.6 kg/m3
- mass density (353.16 K, 23896 kPa, Liquid, Vibrating tube method): 1120.3 ± 1.6 kg/m3
- mass density (362.94 K, 86.6 kPa, Gas, isochoric method): 3.3 ± 0.079 kg/m3
- mass density (362.94 K, 316.2 kPa, Gas, isochoric method): 12.346 ± 0.082 kg/m3
- mass density (362.94 K, 316.3 kPa, Gas, isochoric method): 12.346 ± 0.082 kg/m3
- mass density (362.95 K, 473.2 kPa, Gas, isochoric method): 18.868 ± 0.085 kg/m3
- mass density (362.96 K, 197.6 kPa, Gas, isochoric method): 7.634 ± 0.08 kg/m3
- mass density (362.96 K, 473.2 kPa, Gas, isochoric method): 18.868 ± 0.085 kg/m3
- mass density (362.96 K, 540 kPa, Gas, isochoric method): 21.739 ± 0.088 kg/m3
- mass density (362.96 K, 695.3 kPa, Gas, isochoric method): 28.571 ± 0.093 kg/m3
- mass density (362.97 K, 899.7 kPa, Gas, isochoric method): 38.462 ± 0.1 kg/m3
- mass density (362.97 K, 987.6 kPa, Gas, isochoric method): 43.478 ± 0.12 kg/m3
- mass density (362.98 K, 766.3 kPa, Gas, isochoric method): 32.258 ± 0.097 kg/m3
- mass density (362.98 K, 987.6 kPa, Gas, isochoric method): 43.478 ± 0.12 kg/m3
- mass density (372.89 K, 557 kPa, Gas, isochoric method): 21.739 ± 0.085 kg/m3
- mass density (372.9 K, 89.1 kPa, Gas, isochoric method): 3.3 ± 0.077 kg/m3
- mass density (372.9 K, 325.6 kPa, Gas, isochoric method): 12.346 ± 0.08 kg/m3
- mass density (372.9 K, 557 kPa, Gas, isochoric method): 21.739 ± 0.085 kg/m3
- mass density (372.91 K, 203.3 kPa, Gas, isochoric method): 7.634 ± 0.077 kg/m3
- mass density (372.92 K, 792.3 kPa, Gas, isochoric method): 32.258 ± 0.094 kg/m3
- mass density (372.93 K, 488 kPa, Gas, isochoric method): 18.868 ± 0.082 kg/m3
- mass density (372.95 K, 1023.8 kPa, Gas, isochoric method): 43.478 ± 0.11 kg/m3
- mass density (372.95 K, 1023.9 kPa, Gas, isochoric method): 43.478 ± 0.11 kg/m3
- mass density (372.96 K, 931.7 kPa, Gas, isochoric method): 38.462 ± 0.098 kg/m3
- mass density (372.97 K, 718.5 kPa, Gas, isochoric method): 28.571 ± 0.09 kg/m3
- mass density (372.97 K, 718.6 kPa, Gas, isochoric method): 28.571 ± 0.09 kg/m3

Source: the NIST ThermoML archive (doi:10.1021/je300945r)
